The values below come from patent publication US20050096308A1, “Antibacterial agents” (priority 2003, published 2005).

Converted amounts (≈) assume the structure as drawn.

Holding throughout (assay): Antibacterial assay (Test A), standard microtitration, MIC
Holding throughout (format): cell-based

One experiment deals with E. coli MC4100. To be noted: Escherichia coli; Gram Negative Bacteria; strain MC4100; read-out: Minimum Inhibitory Concentrations E. coli MC4100. Here is the method:
(§1) Test A—Antibacterial Assays
(§2) The compounds of the present invention were tested against an assortment of Gram-negative and Gram-positive organisms using standard microtitration techniques (Cohen et. al., Antimicrob., 1985;28:766; Heifetz, et. al., Antimicrob., 1974;6:124).

Another experiment relates to H. influenzae HI-3542. To be noted: Haemophilus influenzae, HI3542; Gram Negative Bacteria; strain HI-3542; read-out: Minimum Inhibitory Concentrations H. influenzae HI-3542. The procedure: as §1, §2
A further experiment has as its system M. catarrhalis BC-3531. As to conditions: Moraxella catarrhalis, BC3531; Gram Negative Bacteria; strain BC-3531; read-out: Minimum Inhibitory Concentrations M. catarrhalis BC-3531. Here is the method:
as §1, §2

The next experiment deals with E. faecalis MGH-2. As to conditions: Enterococcus faecalis, MGH2; Gram Positive Bacteria; strain MGH-2; read-out: Minimum Inhibitory Concentrations E. faecalis MGH-2. Here is the method:
as §1, §2

For the next experiment, the system named is S pyogenes C203. As to conditions: Gram Positive Bacteria; strain C203; read-out: Minimum Inhibitory Concentrations S pyogenes C203. The procedure:
as §1, §2

The test system of another experiment is S. aureus UC-76. To be noted: Staphylococcus aureus, UC76; Gram Positive Bacteria; strain UC-76; read-out: Minimum Inhibitory Concentrations S. aureus UC-76. Here is the method: as §1, §2

On to `Nc1nc(-n2c(=O)n(N)c(=O)c3cc(F)c(N4CC(O)C4)c(Cl)c32)c(F)cc1F` [drawing 117], for which the MIC turned out to be 64 µg/mL (≈ 149 µM) in the experiment with E. coli MC4100, 1 µg/mL (≈ 2.33 µM) with H. influenzae HI-3542 and 4 µg/mL (≈ 9.33 µM) in the experiment with M. catarrhalis BC-3531.

Take `Cc1c(N2CC(O)C2)c(F)cc2c(=O)n(N)c(=O)n(C3CC3)c12` [drawing 118]: the figures for the MIC in the experiment with E. coli MC4100, in the experiment on H. influenzae HI-3542 and in the experiment on M. catarrhalis BC-3531 were 1 µg/mL (≈ 3.12 µM), 32 µg/mL (≈ 99.9 µM) and 1 µg/mL (≈ 3.12 µM), respectively.

As to `Cc1c(N2CC(CCO)C2)c(F)cc2c(=O)n(N)c(=O)n(C3CC3)c12` [drawing 119], the MIC came to 32 µg/mL (≈ 91.9 µM) in the experiment with E. coli MC4100, 4 µg/mL (≈ 11.5 µM) with H. influenzae HI-3542 and 4 µg/mL (≈ 11.5 µM) in the experiment with M. catarrhalis BC-3531.

Regarding `Nn1c(=O)c2cc(F)c(N3CC(O)(C4CC4)C3)c(Cl)c2n(C2CC2)c1=O` [drawing 120], the figures for the MIC in the experiment on E. coli MC4100, in the experiment on H. influenzae HI-3542 and in the experiment on M. catarrhalis BC-3531 were 0.002 µg/mL (≈ 0.00525 µM), 0.03 µg/mL (≈ 0.0788 µM) and 0.03 µg/mL (≈ 0.0788 µM), respectively.

As to `Nn1c(=O)c2cc(F)c(N3CC(O)(c4ccc(F)cc4)C3)c(Cl)c2n(C2CC2)c1=O` [drawing 121], the MIC was found to be 64 µg/mL (≈ 147 µM) in the experiment with E. coli MC4100, 32 µg/mL (≈ 73.6 µM) in the experiment with H. influenzae HI-3542 and 16 µg/mL (≈ 36.8 µM) in the experiment with M. catarrhalis BC-3531.

Take `CC(C)C1(O)CN(c2c(F)cc3c(=O)n(N)c(=O)n(C4CC4)c3c2Cl)C1` [drawing 122]: the figures for the MIC with E. coli MC4100, in the experiment with H. influenzae HI-3542 and in the experiment on M. catarrhalis BC-3531 were 64 µg/mL (≈ 167 µM), 32 µg/mL (≈ 83.6 µM) and 32 µg/mL (≈ 83.6 µM), respectively.

Turning to `Nc1nc(-n2c(=O)n(N)c(=O)c3cc(F)c(N4CC(O)C4)c(Cl)c32)c(F)cc1F` [drawing 123], the MIC is 16 µg/mL (≈ 37.3 µM) in the experiment on E. faecalis MGH-2, 16 µg/mL (≈ 37.3 µM) in the experiment on S pyogenes C203 and 4 µg/mL (≈ 9.33 µM) in the experiment on S. aureus UC-76.

As for `Cc1c(N2CC(O)C2)c(F)cc2c(=O)n(N)c(=O)n(C3CC3)c12` [drawing 124], the MIC with E. faecalis MGH-2 was 32 µg/mL (≈ 99.9 µM); in the experiment on S pyogenes C203, 16 µg/mL (≈ 49.9 µM); in the experiment with S. aureus UC-76 it was 1 µg/mL (≈ 3.12 µM).

`Cc1c(N2CC(CCO)C2)c(F)cc2c(=O)n(N)c(=O)n(C3CC3)c12` [drawing 125]: the MIC came to 16 µg/mL (≈ 45.9 µM) with E. faecalis MGH-2, 16 µg/mL (≈ 45.9 µM) in the experiment on S pyogenes C203 and 4 µg/mL (≈ 11.5 µM) in the experiment on S. aureus UC-76.

On to `Nn1c(=O)c2cc(F)c(N3CC(O)(C4CC4)C3)c(Cl)c2n(C2CC2)c1=O` [drawing 126], for which the values for the MIC in the experiment on E. faecalis MGH-2, in the experiment on S pyogenes C203 and in the experiment with S. aureus UC-76 were 0.5 µg/mL (≈ 1.31 µM), 0.5 µg/mL (≈ 1.31 µM) and 0.03 µg/mL (≈ 0.0788 µM), respectively.

Turning to `Nn1c(=O)c2cc(F)c(N3CC(O)(c4ccc(F)cc4)C3)c(Cl)c2n(C2CC2)c1=O` [drawing 127], the MIC with E. faecalis MGH-2 stood at 16 µg/mL (≈ 36.8 µM); in the experiment with S pyogenes C203, 8 µg/mL (≈ 18.4 µM); in the experiment with S. aureus UC-76, 4 µg/mL (≈ 9.2 µM).

Regarding `CC(C)C1(O)CN(c2c(F)cc3c(=O)n(N)c(=O)n(C4CC4)c3c2Cl)C1` [drawing 128], the MIC in the experiment on E. faecalis MGH-2 is 32 µg/mL (≈ 83.6 µM); in the experiment on S pyogenes C203 it was 64 µg/mL (≈ 167 µM); in the experiment with S. aureus UC-76, 16 µg/mL (≈ 41.8 µM).
